Measurements reported in patent US5869650A, “Dendroamide compounds and their use in chemosensitizing multidrug resistant cells” (Fox Chase Cancer Center, priority 1996, dated 1999).
“Also recorded” adds a separate entry of the source.

Tests used:
[1] = tested on: MCF-7/ADR cells (overexpress P-glycoprotein); test: [3H]vinblastine accumulation in MCF-7/ADR cells; type: cell-based
Experimental: The reduction in intracellular accumulation of anticancer drugs due to expression of P-glycoprotein can be at least partially reversed by compounds which interact with the drug transporter.
D. Smith et al., Mol. Pharm. 45:241-247 (1995), using 20 nm [^3 H]vinblastine sulfate (10-15 Ci/mmole) from the Amersham Corporation.
[^3 H]vinblastine was then added and its intracellular accumulation after 60 minutes was determined. Values shown in FIG. 1 represent the mean ± standard deviation accumulation of [^3 H]vinblastine in triplicate samples in one of three similar experiments.

[2] = tested on: MCF-7 cells; test: [3H]vinblastine accumulation in MCF-7 cells; type: cell-based; details: parental MCF-7 cells
Experimental: D. Smith et al., Mol. Pharm.
[^3 H]vinblastine was then added and its intracellular accumulation after 60 minutes was determined.

[3] = tested on: MCF-7/ADR cells; test: Chemosensitization of MCF-7/ADR cells (sulforhodamine binding assay, cell killing by anticancer drugs); type: cell-based
Experimental: FIGS. 2A and 2B show the chemosensitization of MCF-7/ADR breast carcinoma cells by Compound A. In FIG. 2A, MCF-7/ADR cells were treated with the indicated concentrations of Compound A in the presence of 15 μM daunomycin (.quadrature.), 200 nM actinomycin D (Δ) or 4 μM cisplatin (.largecircle.). In FIG. 2B, MCF-7 cells (.diamond-solid.) or MCF-7/ADR cells treated with 1% ethanol (.diamond.), 0.6 (.quadrature.) or 2.5 μM of Compound A (Δ) were incubated with the indicated concentrations of vinblastine.
The ability of Compound A to reverse MDR was examined using MCF-7/ADR cells breast carcinoma cells which were obtained as described in Example 5. The effects of Compound A on cell growth were characterized using the sulforhodamine binding assay (P. Skehan et al., J. Natl. Cancer Inst. 82:1107-1112 (1990)) as described in C. D. Smith et al., Oncology Res. 6:211-218 (1994) and C. D. Smith et al., Mol. Pharm. 45:241-247 (1995). Cell survival was assessed after 48 hours of treatment and was expressed as the percentage of cells killed.
The results of the chemosensitization tests showing the effect of the MDR reversing agent Compound A on cell killing by anticancer drugs in the multiple drug resistant MCF-7/ADR cells are shown in FIGS. 2A and 2B. The MCF-7/ADR cells were treated with the indicated concentrations of Compound A in the presence of daunomycin, actinomycin D and or cisplatin. Values shown in FIGS. 2A and 2B represent the mean±standard deviation for triplicate samples in one of two similar experiments.

[4] = target: T1, P-glycoprotein (Homo sapiens, UniProt P08183)
T1 sequence (P08183 whole entry): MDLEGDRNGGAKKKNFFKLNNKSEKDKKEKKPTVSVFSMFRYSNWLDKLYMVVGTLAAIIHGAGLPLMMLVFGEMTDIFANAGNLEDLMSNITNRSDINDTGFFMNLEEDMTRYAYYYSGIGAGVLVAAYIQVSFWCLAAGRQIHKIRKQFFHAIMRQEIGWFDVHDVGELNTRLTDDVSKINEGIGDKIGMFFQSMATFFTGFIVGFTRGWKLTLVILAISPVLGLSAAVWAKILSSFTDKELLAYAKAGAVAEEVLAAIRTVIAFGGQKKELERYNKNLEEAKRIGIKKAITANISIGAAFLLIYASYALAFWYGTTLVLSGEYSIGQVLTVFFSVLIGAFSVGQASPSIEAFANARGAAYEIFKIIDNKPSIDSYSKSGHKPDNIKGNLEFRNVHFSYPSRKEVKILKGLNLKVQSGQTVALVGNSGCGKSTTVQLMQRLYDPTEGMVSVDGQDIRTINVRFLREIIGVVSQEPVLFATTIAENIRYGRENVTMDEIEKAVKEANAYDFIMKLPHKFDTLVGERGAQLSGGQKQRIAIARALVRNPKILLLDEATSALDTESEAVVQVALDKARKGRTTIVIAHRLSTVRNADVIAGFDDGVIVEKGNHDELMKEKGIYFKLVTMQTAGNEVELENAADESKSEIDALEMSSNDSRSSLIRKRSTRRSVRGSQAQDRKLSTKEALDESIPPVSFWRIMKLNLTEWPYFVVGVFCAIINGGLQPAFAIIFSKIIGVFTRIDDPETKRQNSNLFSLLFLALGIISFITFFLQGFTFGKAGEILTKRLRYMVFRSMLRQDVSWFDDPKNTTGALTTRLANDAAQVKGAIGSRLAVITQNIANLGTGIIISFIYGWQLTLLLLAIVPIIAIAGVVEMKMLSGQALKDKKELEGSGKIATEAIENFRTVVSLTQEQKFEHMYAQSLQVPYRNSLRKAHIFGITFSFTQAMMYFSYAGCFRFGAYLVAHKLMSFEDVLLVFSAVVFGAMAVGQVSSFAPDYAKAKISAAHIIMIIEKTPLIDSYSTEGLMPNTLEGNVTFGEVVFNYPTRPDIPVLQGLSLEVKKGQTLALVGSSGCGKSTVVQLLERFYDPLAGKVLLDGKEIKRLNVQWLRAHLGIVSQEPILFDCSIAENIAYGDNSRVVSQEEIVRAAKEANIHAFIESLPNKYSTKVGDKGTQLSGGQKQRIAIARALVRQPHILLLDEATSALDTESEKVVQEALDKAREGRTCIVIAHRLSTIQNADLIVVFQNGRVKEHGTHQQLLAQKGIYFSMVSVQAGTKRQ

[5] = target: T1, P-glycoprotein; test: biochemical
[6] = tested on: MCF-7/VP cells (express multidrug resistance-related protein (MRP)); test: Chemosensitization of MCF-7/VP cells (sulforhodamine binding assay, cytotoxicity of anticancer drugs)
[7] = tested on: MDR cells; details: cited from earlier work
[8] = Tsuruo et al., Cancer Res. 41:1967 (1981)

Cc1oc2nc1C(=O)N[C@H](C(C)C)c1nc(cs1)C(=O)N[C@H](C)c1nc(cs1)C(=O)N[C@@H]2C [Compound A, Cyclo-D-Val-Tzl-D-Ala-Tzl-D-Ala-mOzl]
ability to increase the accumulation of [3H]vinblastine (in words) ([1]; Compound A compared with verapamil): more potent than verapamil; also recorded: strongly enhanced | activity at 5 µM ([1]; Homo sapiens, NCI/ADR-RES, 1 h, 5 μM, 30 min preincubation, accumulation after 60 min, FIG. 1): 750% | EC (maximal effect) ([1]; Homo sapiens, NCI/ADR-RES, 1 h, FIG. 1, read-out: concentration of maximal effect on [3H]vinblastine accumulation): 20 µM | effect on accumulation of [3H]vinblastine (in words) [2]: Neither Compound A nor verapamil increased the accumulation | active concentrations for chemosensitization (in words) ([3]; daunomycin or actinomycin D, FIG. 2A): activity at submicromolar concentrations | reversal of P-glycoprotein-mediated MDR (in words) ([3]; vinblastine, FIG. 2B): completely overcomes P-glycoprotein-mediated MDR | effect on cell killing by actinomycin D ([3]; with actinomycin D (200 nM in FIG. 2A), 48 hours): killed more effectively; also recorded: markedly potentiating cell killing | effect on cytotoxicity of cisplatin ([3]; with cisplatin (4 μM in FIG. 2A), 48 hours): did not alter the cytotoxicity of cisplatin | effect on cell killing by daunomycin ([3]; with daunomycin (15 μM in FIG. 2A), 48 hours): killed more effectively; also recorded: markedly potentiating cell killing | effect on cell killing by vinblastine ([3]; with vinblastine, 48 hours): markedly potentiating cell killing | binding of [3H]azidopine to P-glycoprotein (in words) [4]: progressive decreases in binding | IC50 [5]: 500 nM | reversal of MRP-mediated resistance to vincristine (in words) ([6]; MCF-7/VP cells, 10 μM, 48 hours): fully reversed; also recorded: fully reverses MRP-mediated resistance | effect on responses to cisplatin ([6]; MCF-7/VP cells, with cisplatin): did not modulate responses to cisplatin

COc1ccc(CCN(C)CCCC(C#N)(c2ccc(OC)c(OC)c2)C(C)C)cc1OC (stereo not shown) [verapamil]
effect on accumulation of [3H]vinblastine (in words) [2]: Neither Compound A nor verapamil increased the accumulation | intracellular accumulation of anticancer drugs (in words) [7, 8]: promote intracellular accumulation of those drugs | sensitization of MDR cells to anticancer drugs (in words) [7, 8]: sensitize MDR cells to anticancer drugs | reversing activity in cultured cells (in words) ([7]; cultured cells): potent and effective reversing agent

CC[C@]1(O)C[C@H]2CN(CCc3c([nH]c4ccccc34)[C@@](C(=O)OC)(c3cc4c(cc3OC)N(C=O)[C@H]3[C@@](O)(C(=O)OC)[C@H](OC(C)=O)[C@]5(CC)C=CCN6CC[C@]43[C@@H]65)C2)C1 [vincristine, reference compound]
fold resistance of MCF-7/VP cells in comparison with MCF-7 cells ([6]; vincristine, MCF-7/VP vs MCF-7 cells): 15 fold
